Reference: PMC9607599, “Dual Targeting Ligands—Histamine H3 Receptor Ligands with Monoamine Oxidase B Inhibitory Activity—In Vitro and In Vivo Evaluation” (Pharmaceutics, 2022)

Tests used:
[1] = target: T1, human MAO B (hMAO B) (Homo sapiens, UniProt P27338); test: fluorometric MAO assay (p-tyramine substrate); assay type: biochemical; conditions: fluorometric MAO assay; mean ± SEM of 2–4 independent experiments
T1 sequence (P27338 1-520): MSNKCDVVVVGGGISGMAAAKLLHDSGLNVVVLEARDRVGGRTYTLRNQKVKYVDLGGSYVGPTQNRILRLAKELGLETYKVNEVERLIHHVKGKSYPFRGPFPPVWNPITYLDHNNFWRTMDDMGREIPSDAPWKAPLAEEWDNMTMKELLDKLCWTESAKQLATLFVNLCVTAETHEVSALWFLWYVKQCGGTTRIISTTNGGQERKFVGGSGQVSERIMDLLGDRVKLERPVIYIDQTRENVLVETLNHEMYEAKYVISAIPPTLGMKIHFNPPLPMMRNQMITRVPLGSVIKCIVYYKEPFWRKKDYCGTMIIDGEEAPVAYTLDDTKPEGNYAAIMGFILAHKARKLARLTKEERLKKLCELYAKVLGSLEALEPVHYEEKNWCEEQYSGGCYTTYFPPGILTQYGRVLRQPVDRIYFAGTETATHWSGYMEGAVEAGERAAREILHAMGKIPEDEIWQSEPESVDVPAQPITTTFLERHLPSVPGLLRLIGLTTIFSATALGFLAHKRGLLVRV
Procedure: The precise method was described in [6]. First, compounds 4–32 were screened for hMAO B inhibitory activity at 1 μM concentration by the fluorometric method. Para-tyramine (200 μM) was used as a substrate for the enzyme and safinamide (1 μM) was used as a reference compound. […] Each experiment was performed in duplicate.
All compounds were first screened for hMAO B inhibitory activity at the concentration of 1 μM. […] Based on the results, we selected compounds 9 and 13 for further analysis.

[2] = target: human histamine H3 receptor (hH3R) (Homo sapiens, UniProt Q9Y5N1); test: [3H]Nα-methylhistamine radioligand binding assay in CHO-K1 cells stably expressing hH3R; parameters: expressed in transfected cells; host or cells: CHO-K1; conditions: CHO-K1 cells; [3H]Nα-methylhistamine; mean ± SEM of three independent experiments; read-out: hH3R Ki [nM] ± SEM
Procedure: Affinity to hH3R stably expressed in CHO-K1 [6] or HEK293 [11] cells was evaluated in a radioligand binding assay as described previously. Briefly, 10 mM stock solutions of the test compounds in DMSO were prepared. Each compound was tested at eight concentrations ranging from 10^−5 to 10^−12 M (final concentration). All assays were carried out in duplicate. […] The radioactivity was counted in MicroBeta 2 [6] or MicroBeta Trilux counter (PerkinElmer). Data were fitted to a one-site curve-fitting equation with Prism 6 (GraphPad Software, San Diego, CA, USA) and Ki values were calculated from IC50 values (from at least three experiments performed in duplicates) according to the Cheng−Prusoff equation [12].
Affinity for hH3R was evaluated in a radioligand binding assay using [^3H]N^α-methylhistamine as radioligand in CHO K1 or HEK293 cells stably expressing hH3R as described previously. […] Then, those with at least 50% inhibition for hH3R were selected for further testing (Ki evaluation). […] Compounds were tested in the binding assay in HEK293 cells.

[3] = target: T2, MAO B (Homo sapiens, UniProt P27338); test: reversibility of MAO B inhibition (reactivation by excess p-tyramine, with/without preincubation); assay type: biochemical; conditions: inhibitor at IC80
T2 sequence (P27338 1-520): T1 sequence (P27338 1-520)
Procedure: The reversibility of the MAO inhibition was tested as described in [6, 7]. […] Two variants of experiment were performed. […] After 22 min, the concentration of the substrate was increased to 200 µM and the signal was measured for 5 h.

[4] = target: T1, human MAO B (hMAO B); test: modality of hMAO B inhibition (Michaelis-Menten / Lineweaver-Burk); assay type: biochemical
Procedure: Modality of hMAO B inhibition was evaluated for compounds 9 and 13 and the reference safinamide according to the method described previously. Three concentrations of inhibitors, corresponding to their IC20, IC50 and IC80 values, were used. Each experiment was performed in triplicate. KM and Vmax values were calculated from Michaelis–Menten curves by nonlinear regression from the substrate. Lineweaver–Burk plots were calculated using linear regression in GraphPad Prism 6.07 (GraphPad Software, San Diego, CA, USA).
For testing modality of enzyme inhibition, we used three concentrations of inhibitors that corresponded to their IC20, IC50 and IC80 values. Substrate (p-tyramine) was used at concentrations: 0.05, 0.1, 0.5, 1.0, 1.5 and 2.0 mM.

[5] = parallel artificial membrane permeability assay (PAMPA); assay type: in vitro ADME
[6] = MTT cell viability test on human astrocytes; assay type: cell-based; conditions: human; 24 h; at 0.15 and 0.25 mg/mL; read-out: decline in cell viability in comparison to the control level
Procedure: The studies were performed on a commercially-available astrocyte cell line isolated from human cerebral cortex (ScienCell Research Laboratories, San Diego, CA, USA; Cat no. 1800). The cells (passage 7–8) were seeded into a 96-well plate at an amount of 10,000 cells/well and kept in accordance with the ScienCell Research Laboratories’ protocol, i.e., in astrocyte medium supplemented with 2% fetal bovine serum, 10% astrocyte growth supplement and 1% penicillin/streptomycin solution, in an atmosphere with 5% CO2 at 37 °C. The cells were allowed to grow for 24 h and then treated with increasing concentrations of test compounds (0.01–0.25 mg/mL) for 24 and 72 h. Astrocytes in the medium on each plate (regardless of the factors tested) were used as a positive control.
The viability of the astrocyte cell line was determined calorimetrically using 3-(4,5-dimethylthazol-2-yl)-2,5-diphenyltetrazolium bromide (MTT; Sigma-Aldrich Chemical Co. Ltd., Saint Louis, MO, USA) as described earlier. […] After the incubation time (24 or 72 h) with examined drugs, 50 μL MTT solution (1 mg/mL) was added to each well of the plate for another 4 h. The method is based on the reduction of a yellow tetrazolium salt (MTT) into purple formazan crystals by mitochondrial succinate-tetrazolium reductase system which is metabolically active in viable cells. At the end of the experiment, the cells were treated with 100 μL dimethyl sulphoxide, which enabled the release of the reaction product.
The absorbance was measured at 570 nm using a BioTek EL×800 microplate reader (BioTek, Winooski, Vermont, USA) and results were expressed as a percentage of the absorbance measured in control cells. The obtained values were plotted against different concentrations of each compound to calculate the viability inhibition concentration at 50% (IC50) using GraphPad Prism 6.07 (GraphPad Software, Inc., San Diego, CA, USA). The experiment was repeated in quadruplicate.
For the cytotoxicity assessment in the MTT assays, each test drug was used at 8 concentrations (range: 0.01–0.25 mg/mL).

[7] = inhibitor at IC20, IC50, IC80, p-tyramine 0.05–2.0 mM

human histamine H3 receptor (hH3R), sequence (Q9Y5N1 whole entry): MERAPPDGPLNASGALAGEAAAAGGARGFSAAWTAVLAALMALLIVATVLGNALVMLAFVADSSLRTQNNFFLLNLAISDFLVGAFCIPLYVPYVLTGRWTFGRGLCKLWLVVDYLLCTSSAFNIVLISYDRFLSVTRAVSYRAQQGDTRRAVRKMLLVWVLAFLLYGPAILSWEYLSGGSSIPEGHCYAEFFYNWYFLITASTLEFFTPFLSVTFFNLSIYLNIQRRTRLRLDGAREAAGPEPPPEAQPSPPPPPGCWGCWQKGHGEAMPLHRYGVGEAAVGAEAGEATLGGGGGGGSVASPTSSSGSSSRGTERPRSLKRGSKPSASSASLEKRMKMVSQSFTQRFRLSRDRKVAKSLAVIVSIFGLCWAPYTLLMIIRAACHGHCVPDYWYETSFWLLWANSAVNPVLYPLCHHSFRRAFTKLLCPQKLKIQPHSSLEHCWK

## CC1CCCN1CCCOc1ccc(C(C)(C)C)cc1.O=C(O)C(=O)O (centres unmarked) [Compound 13, 1-(3-(4-(tert-Butyl)phenoxy)propyl)-2-methylpyrrolidine hydrogen oxalate]
[1]
  IC50: 4 ± 0.3 nM
[2]
  Ki: 25 ± 9 nM
[3]
  effect of 30 min preincubation on inhibition (preincubated vs non-preincubated): did not show differences between the variants
[3]; excess p-tyramine 200 µM
  reversibility of MAO B inhibition: reversible inhibition
[4]
  Affinity (free enzyme vs enzyme-substrate complex): Free enzyme ≈ enzyme-substrate complex
  Mode of inhibition from kinetic values and LB plot: noncompetitive inhibition
[4]; Lineweaver–Burk double-reciprocal plot
  Lines on LB plot: Lines intersect to the left of y-axis directly on x-axis
[4]; [7]
  app. KM: No effect ^a
  app. Vmax: ↓ curvilinearly with ↑ [I]
  app. Vmax/app. KM: ↓ curvilinearly with ↑ [I]
[5]
  permeability in PAMPA, in words: high permeability
[5]; PAMPA, triplicate, breakpoint for permeable compounds Pe ≥ 1.5×10^−6 cm/s
  Pe (×10^−6cm/s) ± SD: 16.72 ×10^−6cm/s
[5]; PAMPA, triplicate, breakpoint for permeable compounds Pe ≥ 1.5×10^−6 cm/s, read-out: Pe ± SD
  Papp: 16.72 ± 0.06 ×10⁻⁶ cm/s
[6]
  viability at 24 h: > 95%
